# Results: patent US8372838B2, “Compounds as bradykinin B1 antagonists” (Boehringer Ingelheim International GmbH, priority 2010, dated 2013)
# Assays:
# cynomolgus BK1-receptor = molecular target: T1, cynomolgus BK1-receptor (Macaca fascicularis, UniProt Q3BCU0); assay: cynoBK1-receptor binding assay
# T1 construct: expressed in transfected cells; host or cells: CHO cells
# T1 sequence (Q3BCU0 1-352): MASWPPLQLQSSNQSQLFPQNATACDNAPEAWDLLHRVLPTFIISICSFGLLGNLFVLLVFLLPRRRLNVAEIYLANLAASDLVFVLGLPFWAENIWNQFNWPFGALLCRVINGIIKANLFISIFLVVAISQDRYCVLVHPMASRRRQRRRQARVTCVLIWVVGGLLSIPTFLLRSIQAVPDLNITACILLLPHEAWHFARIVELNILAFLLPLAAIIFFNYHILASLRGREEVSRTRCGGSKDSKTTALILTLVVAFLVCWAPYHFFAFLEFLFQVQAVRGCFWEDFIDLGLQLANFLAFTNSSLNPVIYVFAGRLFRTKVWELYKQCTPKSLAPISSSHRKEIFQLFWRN
# Description: Description of the Method of Binding the CynoBK1-Receptor
# CHO cells that express the cynomolgus BK1-receptor are cultivated in “HAM'S F-12 Medium”. The medium is removed from confluent cultures, the cells are washed with PBS buffer, scraped off or detached using Versene and isolated by centrifuging. Then the cells are homogenised in suspension, the homogenate is centrifuged and resuspended. After the protein content has been determined 200 μl of the homogenate (50 to 250 μg protein/assay) are incubated for 60-180 minutes at ambient temperature with 0.5 to 5.0 nM kallidine (DesArg10,Leu9), [3,4-Prolyl-3,43H(N)] and increasing concentrations of the test substance in a total volume of 250 μl. The incubation is stopped by rapid filtration through GF/B glass fibre filters that have been pre-treated with polyethyleneimine (0.3%). The radioactivity bound to the protein is measured with a TopCount NXT. The radioactivity bound in the presence of 1.0 μM kallidine (DesArg10) is defined as non-specific binding. The concentration binding curve may be analysed using computer-aided non-linear curve fitting to determine the corresponding Ki value for the test substance.
# Test results of the cynoBK1-receptor binding assay: […]
# human hepatocytes = assay: metabolic clearance in human hepatocytes; type: in vitro ADME; settings: cryopreserved primary human hepatocytes, 5% human serum, 1 μM test compound, 6 h; well-stirred model, percentage of human hepatic blood flow
# Text: The metabolic stability can be measured by determining the decomposition in human hepatocytes and using the rate of decomposition to calculate the clearance, which in turn is expressed as a percentage of the human hepatic blood flow (% Qh). […] Thus, in the interests of achieving a long duration of activity it is highly advantageous if the active substance has a high metabolic stability (low clearance).
# Description of Method for Determining Metabolic Clearance in Human Hepatocytes
# The metabolic breakdown of the test substance is determined in a hepatocyte suspension. Cryopreserved primary human hepatocytes are incubated in a suitable incubation medium (e.g. Dulbecco's modified eagle medium, DMEM) which contains 5% human serum. After 30 minutes' pre-incubation in the incubator (37° C., 10% carbon dioxide) 5 μL of the test compound (80 μM, prepared from a 2 mM stock solution in dimethylsulphoxide and diluted 1:25 with incubation medium) are added to 395 μL of hepatocyte suspension (cell density in the range from 0.25-1 million cells/mL, typically 1 million cells/mL; final concentration of the test compound 1 μM). The cells are incubated for 6 hours in an incubator with an orbital agitator. At times 0, 0.5, 1, 2, 4 and 6 h, 25 μL of the medium are removed in each case. The medium removed is mixed with an excess of acetonitrile and centrifuged for 5 minutes. The supernatant is removed, evaporated to dryness under nitrogen and taken up in a mixture of 25% methanol and 0.1% formic acid. The reduction in the concentration of the test substance in the incubation medium is determined by coupling liquid chromatography with electrospray mass spectrometry. The linear phase of the decrease in the concentration of the test substance in the medium is used for the calculation. The intrinsic clearance is calculated as follows: CL_INTRINSIC=dose/AUC=(C0/CD)/(AUD+clast/k)×1000/60. C0: initial concentration in the incubation [μM], CD: cell density of the vital cells [10e6cells/mL], AUD: area under the curve [μM×h], clast: concentration of the last data point [μM], k: increase in the regression lines for the reduction in the test substance [h−1]. The intrinsic in vitro clearance calculated is now converted into the intrinsic in vivo clearance: CL_INTRINSIC_INVIVO [ml/min/kg]=(CL_INTRINSIC [μL/min/10e6cells]×hepatocellularity [10e6 cells/g liver]×liver factor [g/kg body weight])/1000 and the estimated human clearance is calculated using the well-stirred model: CL [ml/min/kg]=CL_INTRINSIC_INVIVO [ml/min/kg]×hepatic blood flow [ml/min/kg]/(CL_INTRINSIC_INVIVO [ml/min/kg]+hepatic blood flow [ml/min/kg]). […]
# [1] = CHO cell homogenate expressing cynomolgus BK1-receptor, radioligand kallidine (DesArg10,Leu9), [3,4-Prolyl-3,43H(N)]
# [2] = cynoBK1-receptor binding, repeated beside clearance in the metabolic stability table
SMILES,Ki (cynomolgus BK1-receptor; [1]) [nM],Ki (cynomolgus BK1-receptor; [2]) [nM],Clearance (human hepatocytes) [% Qh]
"O=C(N[C@@]1(C(=O)NCc2ccc(Nc3ccc(F)cc3C(F)(F)F)cc2)CCOC1)c1cn[nH]c(=O)c1 [Example 3, (S)-6-oxo-1,6-dihydro-pyridazine-4-carboxylic acid-{3-[4-(4-fluoro-2-trifluoromethyl-phenylamino)-benzylcarbamoyl]-tetrahydrofuran-3-yl}-amide]",12,12,7
"O=C(N[C@@]1(C(=O)NCc2ccc(Nc3ccccc3C(F)(F)F)cc2)CCOC1)c1cn[nH]c(=O)c1 [Example 5, (S)-6-oxo-1,6-dihydro-pyridazine-4-carboxylic acid-{3-[4-(2-trifluoromethyl-phenylamino)-benzylcarbamoyl]-tetrahydrofuran-3-yl}-amide]",11,11,22
"O=C(N[C@@]1(C(=O)NCc2ccc(Nc3ccc(Br)cc3C(F)(F)F)cc2)CCOC1)c1cn[nH]c(=O)c1 [Example 8, (S)-6-oxo-1,6-dihydro-pyridazine-4-carboxylic acid-{3-[4-(4-bromo-2-trifluoromethyl-phenylamino)-benzylcarbamoyl]-tetrahydrofuran-3-yl}-amide]",37,–,–
"O=C(N[C@@]1(C(=O)NCc2ccc(Nc3ccccc3C(F)(F)F)cc2F)CCOC1)c1cn[nH]c(=O)c1 [Example 9, (S)-6-oxo-1,6-dihydro-pyridazine-4-carboxylic acid {3-[2-fluoro-4-(2-trifluoromethyl-phenylamino)-benzylcarbamoyl]-tetrahydro-furan-3-yl}-amide]",6.6,–,–

# Next, values leading:
Ki (cynomolgus BK1-receptor; [1]) [nM],Ki (cynomolgus BK1-receptor; [2]) [nM],Clearance (human hepatocytes) [% Qh],SMILES
3.5,3.5,1,"O=C(NC1(C(=O)NCc2ccc(Nc3ccc(F)cc3C(F)(F)F)cn2)CC1)c1cn[nH]c(=O)c1 [Example 1, 6-oxo-5,6-dihydro-pyridazine-4-carboxylic acid-(1-{[5-(4-fluoro-2-trifluoromethyl-phenylamino)-pyridin-2-ylmethyl]-carbamoyl}-cyclopropyl)-amide]"
5.1,–,–,"O=C(NC1(C(=O)NCc2ccc(Nc3ccc(Cl)cc3C(F)(F)F)cn2)CC1)c1cn[nH]c(=O)c1 [Example 2, 6-oxo-1,6-dihydro-pyridazine-4-carboxylic acid-(1-{[5-(4-chloro-2-trifluoromethyl-phenylamino)-pyridin-2-ylmethyl]-carbamoyl}-cyclopropyl)-amide]"
27,–,–,"O=C(N[C@@]1(C(=O)NCc2ccc(Nc3ccc(Cl)cc3C(F)(F)F)cc2)CCOC1)c1cn[nH]c(=O)c1 [Example 4, (S)-6-oxo-1,6-dihydro-pyridazine-4-carboxylic acid-{3-[4-(4-chloro-2-trifluoromethyl-phenylamino)-benzylcarbamoyl]-tetrahydrofuran-3-yl}-amide]"
3.2,–,6,"O=C(N[C@@]1(C(=O)NCc2ccc(Nc3ccc(F)cc3C(F)(F)F)cc2F)CCOC1)c1cn[nH]c(=O)c1 [Example 6, (S)-6-oxo-1,6-dihydro-pyridazine-4-carboxylic acid-{3-[2-fluoro-4-(4-fluoro-2-trifluoromethyl-phenylamino)-benzylcarbamoyl]-tetrahydrofuran-3-yl}-amide]"
30,–,–,"O=C(N[C@@]1(C(=O)NCc2ccc(Nc3ccc(Cl)cc3C(F)(F)F)cc2F)CCOC1)c1cn[nH]c(=O)c1 [Example 7, (S)-6-oxo-1,6-dihydro-pyridazine-4-carboxylic acid-{3-[4-(4-chloro-2-trifluoromethyl-phenylamino)-2-fluoro-benzylcarbamoyl]-tetrahydrofuran-3-yl}-amide]"
